Experiments:
Homo sapiens [1] = species: Homo sapiens; test: The compound was tested for inhibition of arachidonic acid(800 uM) induced platelet aggregation in human platelet rich plasma.; format: functional; settings: read-out: I50
Thromboxane A2 receptor = target: T1, Thromboxane A2 receptor (Homo sapiens, UniProt P21731); test: The compound was tested for inhibition of specific binding of [3H]-SQ 29,548 to thromboxane A2 receptor in human platelet membranes; format: cell membranes
T1 sequence (P21731 whole entry): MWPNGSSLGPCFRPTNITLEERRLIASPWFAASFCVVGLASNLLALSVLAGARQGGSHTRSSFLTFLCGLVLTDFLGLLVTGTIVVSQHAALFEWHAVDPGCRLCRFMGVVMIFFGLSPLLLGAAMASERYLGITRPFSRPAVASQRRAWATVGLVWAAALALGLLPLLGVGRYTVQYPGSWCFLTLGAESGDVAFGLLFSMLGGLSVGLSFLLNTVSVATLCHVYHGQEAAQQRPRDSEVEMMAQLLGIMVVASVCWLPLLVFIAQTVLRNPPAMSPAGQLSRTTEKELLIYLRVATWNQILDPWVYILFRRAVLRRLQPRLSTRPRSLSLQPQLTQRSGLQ

Homo sapiens [2] = species: Homo sapiens; test: The compound was tested for inhibition of U-46,619(10 uM) induced platelet aggregation in human platelet rich plasma(PRP).; format: functional; settings: read-out: I50
Mus musculus [3] = test: The compound was tested in vivo for duration of action after 0.2 mg/kg peroral administration to protect from U-46,619-induced(2.0 mg/kg, iv) death in mice; format: ADME, organism-based; set-up: dose 0.2 mg/kg, route oral; settings: po
Mus musculus [4] = test: The compound was tested in vivo for duration of action after 10 mg/kg peroral administration to protect from U-46,619-induced(2.0 mg/kg, iv) death in mice; format: ADME, organism-based; set-up: dose 10 mg/kg, route oral; settings: po

IC50 (Homo sapiens [1])	SMILES	Kd (Thromboxane A2 receptor)	IC50 (Homo sapiens [2])	T50 (Mus musculus [3])	T50 (Mus musculus [4])
688000 nM	O=C(O)Cc1ccc(CCC2C3CCC(O3)C2/C=N/NC(=O)Nc2ccccc2)cc1 (stereo not drawn)	–	–	–	–
230 nM	O=C(O)CCC/C=C\CC1C2CCC(O2)C1/C=N/NC(=O)Nc1ccccc1 (stereo not drawn)	39.4 nM	710 nM	–	–
7200 nM	O=C(O)COc1cccc(CC2C3CCC(O3)C2/C=N/NC(=O)Nc2ccccc2)c1 (stereo not drawn)	1200 nM	25000 nM	–	–
30000 nM	O=C(O)Cc1cccc(CCC2C3CCC(O3)C2/C=N/NC(=O)Nc2ccccc2)c1 (stereo not drawn)	1070 nM	133000 nM	–	–
310000 nM	O=C(O)Cc1ccc(CC2C3CCC(O3)C2/C=N/NC(=O)Nc2ccccc2)cc1 (stereo not drawn)	–	–	–	–

SMILES	IC50 (Homo sapiens [1])	Kd (Thromboxane A2 receptor)	IC50 (Homo sapiens [2])	T50 (Mus musculus [3])	T50 (Mus musculus [4])
O=C(O)CCCc1ccccc1CC1C2CCC(O2)C1/C=N/NC(=O)Nc1ccccc1 (stereo not drawn)	12 nM	21.1 nM	72 nM	8.7 h	–
O=C(O)CCc1ccccc1CC1C2CCC(O2)C1/C=N/NC(=O)Nc1ccccc1 (stereo not drawn)	3 nM	1 nM	12 nM	16 h	–
O=C(O)COc1ccccc1CC1C2CCC(O2)C1/C=N/NC(=O)Nc1ccccc1 (stereo not drawn)	15 nM	6 nM	46 nM	3.6 h	–
O=C(O)Cc1cccc(CC2C3CCC(O3)C2/C=N/NC(=O)Nc2ccccc2)c1 (stereo not drawn)	370 nM	171 nM	4600 nM	1.7 h	8.3 h
